Literature values, collected in US5143902A, “Glucagon analogs with ASP^9 replacements or deletions” (The Rockefeller University, priority 1991, dated 1992).

Columns and labels:
Details in all cases: background
glucagon receptor = tested on: glucagon receptor
[1] = tested on: another binding system in the hepatocyte membrane
adenylate cyclase = tested on: adenylate cyclase

Nα- trinitrophenyl [12-homoarginine] glucagon
binding to the glucagon receptor (glucagon receptor): does bind to the glucagon receptor | activation of another binding system producing inositol trisphosphate and calcium ions [1]: activates another binding system in the hepatocyte membrane leading to the production of inositol trisphosphate and calcium ions | activation of adenylate cyclase (adenylate cyclase): without significant activation of adenylate cyclase
